Laboratory results: patent publication US7399462B2, “Protectant for UV-induced skin damage” (QLT USA, Inc., priority 2002, dated 2008)

What was measured:
UV-induced tumors = conditions: topical; UV induced mouse carcinogenicity model; cited from earlier work
[1] = system: UV-induced skin tumor formation

| SMILES | Formation of skin tumors compared to untreated or vehicle controls (UV-induced tumors) | Effect on Unbiased Median Weeks to Tumor (in words) ([1]; 600 RBU/week) | Tumor Potency Ratio (≧1 mm Tumor Size), Sexes Combined ([1]; UVR 600 RBU/week, sexes combined, calculated from Unbiased Median Week to Tumor and untreated 600/1200 RBU calibration) |
| --- | --- | --- | --- |
| CC1=C(/C=C/C(C)=C/C=C/C(C)=C/C(=O)O)C(C)(C)CCC1 [tretinoin] | promote the formation of skin tumors |  |  |
| O=C(OOC(=O)c1ccccc1)c1ccccc1 [Benzoyl peroxide] | promote the formation of skin tumors |  |  |
| Nc1ccc(S(=O)(=O)c2ccc(N)cc2)cc1 [Dapsone, bis(4-aminophenyl)sulfone] |  | increased the Unbiased Median Weeks to Tumor in a dose-dependent manner | reduced with dapsone application in a dose-dependent manner |
